Laboratory results from ChEMBL document CHEMBL4665624, “Synthesis of 5-(4-(1H-phenanthro[9,10-d]imidazol-2-yl)benzylidene)thiazolidine-2,4-dione as promising DNA and serum albumin-binding agents and evaluation of antitumor activity” (Eur J Med Chem, 2019).

Key:
[1] = system: CCRF-CEM; assay: Antitumor activity against human CCRF-CEM cells assessed as cell growth inhibition at 10 uM incubated for 48 hrs by sulforhodamine B assay; assay type: functional; conditions: read-out: GI
[2] = system: HL-60(TB); assay: Antitumor activity against human HL-60(TB) cells assessed as cell growth inhibition at 10 uM incubated for 48 hrs by sulforhodamine B assay; assay type: functional; conditions: read-out: GI
[3] = system: K562; assay: Antitumor activity against human K562 cells assessed as cell growth inhibition at 10 uM incubated for 48 hrs by sulforhodamine B assay; assay type: functional; conditions: read-out: GI
[4] = system: MOLT-4; assay: Antitumor activity against human MOLT4 cells assessed as cell growth inhibition at 10 uM incubated for 48 hrs by sulforhodamine B assay; assay type: functional; conditions: read-out: GI
[5] = system: RPMI-8226; assay: Antitumor activity against human RPMI8226 cells assessed as cell growth inhibition at 10 uM incubated for 48 hrs by sulforhodamine B assay; assay type: functional; conditions: read-out: GI
[6] = system: SR; assay: Antitumor activity against human SR cells assessed as cell growth inhibition at 10 uM incubated for 48 hrs by sulforhodamine B assay; assay type: functional; conditions: read-out: GI
[7] = system: EKVX; assay: Antitumor activity against human EKVX cells assessed as cell growth inhibition at 10 uM incubated for 48 hrs by sulforhodamine B assay; assay type: functional; conditions: read-out: GI
[8] = system: HOP-92; assay: Antitumor activity against human HOP92 cells assessed as cell growth inhibition at 10 uM incubated for 48 hrs by sulforhodamine B assay; assay type: functional; conditions: read-out: GI
[9] = system: NCI-H226; assay: Antitumor activity against human NCI-H226 assessed as cell growth inhibition at 10 uM incubated for 48 hrs by sulforhodamine B assay; assay type: functional; conditions: read-out: GI
[10] = system: NCI-H23; assay: Antitumor activity against human NCI-H23 cells assessed as cell growth inhibition at 10 uM incubated for 48 hrs by sulforhodamine B assay; assay type: functional; conditions: read-out: GI
[11] = system: NCI-H460; assay: Antitumor activity against human NCI-H460 assessed as cell growth inhibition at 10 uM incubated for 48 hrs by sulforhodamine B assay; assay type: functional; conditions: read-out: GI
[12] = system: NCI-H522; assay: Antitumor activity against human NCI-H522 cells assessed as cell growth inhibition at 10 uM incubated for 48 hrs by sulforhodamine B assay; assay type: functional; conditions: read-out: GI
[13] = system: COLO 205; assay: Antitumor activity against human COLO205 cells assessed as cell growth inhibition at 10 uM incubated for 48 hrs by sulforhodamine B assay; assay type: functional; conditions: read-out: GI
[14] = system: HCC 2998; assay: Antitumor activity against human HCC2998 cells assessed as cell growth inhibition at 10 uM incubated for 48 hrs by sulforhodamine B assay; assay type: functional; conditions: read-out: GI
[15] = system: HCT-116; assay: Antitumor activity against human HCT116 cells assessed as cell growth inhibition at 10 uM incubated for 48 hrs by sulforhodamine B assay; assay type: functional; conditions: read-out: GI
[16] = system: HCT-15; assay: Antitumor activity against human HCT15 cells assessed as cell growth inhibition at 10 uM incubated for 48 hrs by sulforhodamine B assay; assay type: functional; conditions: read-out: GI
[17] = system: HT-29; assay: Antitumor activity against human HT-29 cells assessed as cell growth inhibition at 10 uM incubated for 48 hrs by sulforhodamine B assay; assay type: functional; conditions: read-out: GI
[18] = system: KM12; assay: Antitumor activity against human KM12 cells assessed as cell growth inhibition at 10 uM incubated for 48 hrs by sulforhodamine B assay; assay type: functional; conditions: read-out: GI
[19] = system: SF-268; assay: Antitumor activity against human SF268 cells assessed as cell growth inhibition at 10 uM incubated for 48 hrs by sulforhodamine B assay; assay type: functional; conditions: read-out: GI
[20] = system: SF-295; assay: Antitumor activity against human SF295 cells assessed as cell growth inhibition at 10 uM incubated for 48 hrs by sulforhodamine B assay; assay type: functional; conditions: read-out: GI
[21] = system: SNB-19; assay: Antitumor activity against human SNB-19 cells assessed as cell growth inhibition at 10 uM incubated for 48 hrs by sulforhodamine B assay; assay type: functional; conditions: read-out: GI
[22] = system: SNB-75; assay: Antitumor activity against human SNB-75 cells assessed as cell growth inhibition at 10 uM incubated for 48 hrs by sulforhodamine B assay; assay type: functional; conditions: read-out: GI
[23] = system: U-251; assay: Antitumor activity against human U251 cells assessed as cell growth inhibition at 10 uM incubated for 48 hrs by sulforhodamine B assay; assay type: functional; conditions: read-out: GI
[24] = system: LOX IMVI; assay: Antitumor activity against human LOX IMVI cells assessed as cell growth inhibition at 10 uM incubated for 48 hrs by sulforhodamine B assay; assay type: functional; conditions: read-out: GI
[25] = system: Malme-3M; assay: Antitumor activity against human MALME-3M cells assessed as cell growth inhibition at 10 uM incubated for 48 hrs by sulforhodamine B assay; assay type: functional; conditions: read-out: GI
[26] = system: M14; assay: Antitumor activity against human M14 cells assessed as cell growth inhibition at 10 uM incubated for 48 hrs by sulforhodamine B assay; assay type: functional; conditions: read-out: GI
[27] = system: MDA-MB-435; assay: Antitumor activity against human MDA-MB-435 cells assessed as cell growth inhibition at 10 uM incubated for 48 hrs by sulforhodamine B assay; assay type: functional; conditions: read-out: GI
[28] = system: SK-MEL-28; assay: Antitumor activity against human SK-MEL-28 cells assessed as cell growth inhibition at 10 uM incubated for 48 hrs by sulforhodamine B assay; assay type: functional; conditions: read-out: GI
[29] = system: UACC-62; assay: Antitumor activity against human UACC-62 cells assessed as cell growth inhibition at 10 uM incubated for 48 hrs by sulforhodamine B assay; assay type: functional; conditions: read-out: GI
[30] = system: IGROV-1; assay: Antitumor activity against human IGROV1 cells assessed as cell growth inhibition at 10 uM incubated for 48 hrs by sulforhodamine B assay; assay type: functional; conditions: read-out: GI
[31] = system: OVCAR-3; assay: Antitumor activity against human OVCAR-3 cells assessed as cell growth inhibition at 10 uM incubated for 48 hrs by sulforhodamine B assay; assay type: functional; conditions: read-out: GI
[32] = system: OVCAR-4; assay: Antitumor activity against human OVCAR-4 cells assessed as cell growth inhibition at 10 uM incubated for 48 hrs by sulforhodamine B assay; assay type: functional; conditions: read-out: GI
[33] = system: OVCAR-8; assay: Antitumor activity against human OVCAR-8 cells assessed as cell growth inhibition at 10 uM incubated for 48 hrs by sulforhodamine B assay; assay type: functional; conditions: read-out: GI
[34] = system: NCI/ADR-RES; assay: Antitumor activity against human NCI/ADR-RES cells assessed as cell growth inhibition at 10 uM incubated for 48 hrs by sulforhodamine B assay; assay type: functional; conditions: read-out: GI
[35] = system: SK-OV-3; assay: Antitumor activity against human SK-OV-3 cells assessed as cell growth inhibition at 10 uM incubated for 48 hrs by sulforhodamine B assay; assay type: functional; conditions: read-out: GI
[36] = system: 786-0; assay: Antitumor activity against human 786-0 cells assessed as cell growth inhibition at 10 uM incubated for 48 hrs by sulforhodamine B assay; assay type: functional; conditions: read-out: GI
[37] = system: A498; assay: Antitumor activity against human A498 cells assessed as cell growth inhibition at 10 uM incubated for 48 hrs by sulforhodamine B assay; assay type: functional; conditions: read-out: GI
[38] = system: ACHN; assay: Antitumor activity against human ACHN cells assessed as cell growth inhibition at 10 uM incubated for 48 hrs by sulforhodamine B assay; assay type: functional; conditions: read-out: GI
[39] = system: RXF 393; assay: Antitumor activity against human RXF 393 cells assessed as cell growth inhibition at 10 uM incubated for 48 hrs by sulforhodamine B assay; assay type: functional; conditions: read-out: GI
[40] = system: SN12C; assay: Antitumor activity against human SN12C cells assessed as cell growth inhibition at 10 uM incubated for 48 hrs by sulforhodamine B assay; assay type: functional; conditions: read-out: GI
[41] = system: UO-31; assay: Antitumor activity against human UO-31 cells assessed as cell growth inhibition at 10 uM incubated for 48 hrs by sulforhodamine B assay; assay type: functional; conditions: read-out: GI
[42] = system: PC-3; assay: Antitumor activity against human PC-3 cells assessed as cell growth inhibition at 10 uM incubated for 48 hrs by sulforhodamine B assay; assay type: functional; conditions: read-out: GI
[43] = system: MCF7; assay: Antitumor activity against human MCF7 cells assessed as cell growth inhibition at 10 uM incubated for 48 hrs by sulforhodamine B assay; assay type: functional; conditions: read-out: GI
[44] = system: MDA-MB-231; assay: Antitumor activity against human MDA-MB-231/ATCC cells assessed as cell growth inhibition at 10 uM incubated for 48 hrs by sulforhodamine B assay; assay type: functional; conditions: read-out: GI
[45] = system: Hs-578T; assay: Antitumor activity against human HS 578T cells assessed as cell growth inhibition at 10 uM incubated for 48 hrs by sulforhodamine B assay; assay type: functional; conditions: read-out: GI
[46] = system: BT-549; assay: Antitumor activity against human BT-549 cells assessed as cell growth inhibition at 10 uM incubated for 48 hrs by sulforhodamine B assay; assay type: functional; conditions: read-out: GI
[47] = system: MDA-MB-468; assay: Antitumor activity against human MDA-MB-468 cells assessed as cell growth inhibition at 10 uM incubated for 48 hrs by sulforhodamine B assay; assay type: functional; conditions: read-out: GI
[48] = system: SW-620; assay: Antitumor activity against human SW620 cells assessed as cell growth inhibition at 10 uM incubated for 48 hrs by sulforhodamine B assay; conditions: SW-620, 48 h, read-out: GI

Compound `c1cc2ccc3ccc(-c4nc5c6ccccc6c6ccccc6c5[nH]4)c4ccc(c1)c2c34` has an inhibition of growth at 10 µM [1] of 10.3%, an inhibition of growth at 10 µM [2] of less than 10% and an inhibition of growth at 10 µM [3] of less than 10%. For the same compound, the inhibition of growth at 10 µM [4] was 26.8%, the inhibition of growth at 10 µM [5] was 10.6% and the inhibition of growth at 10 µM [6] was 23.7%. For the same compound, the inhibition of growth at 10 µM [7] was less than 10%, the inhibition of growth at 10 µM [8] was 27.1% and the inhibition of growth at 10 µM [9] was 76.2%. The inhibition of growth at 10 µM [10] was less than 10%, the inhibition of growth at 10 µM [11] was less than 10% and the inhibition of growth at 10 µM [12] was 17.5%. For the same compound, the inhibition of growth at 10 µM [13] was less than 10%, the inhibition of growth at 10 µM [14] was less than 10% and the inhibition of growth at 10 µM [15] was 16.6%. It also gave an inhibition of growth at 10 µM [16] of less than 10%, an inhibition of growth at 10 µM [17] of less than 10% and an inhibition of growth at 10 µM [18] of 13.5%. The inhibition of growth at 10 µM [19] was 14.6%, the inhibition of growth at 10 µM [20] was less than 10% and the inhibition of growth at 10 µM [21] was less than 10%. It also gave an inhibition of growth at 10 µM [22] of less than 10%, an inhibition of growth at 10 µM [23] of less than 10% and an inhibition of growth at 10 µM [24] of 13.7%. It also gave an inhibition of growth at 10 µM [25] of less than 10%, an inhibition of growth at 10 µM [26] of less than 10% and an inhibition of growth at 10 µM [27] of less than 10%. The inhibition of growth at 10 µM [28] was less than 10%, the inhibition of growth at 10 µM [29] was 38.4% and the inhibition of growth at 10 µM [30] was 13.2%. The inhibition of growth at 10 µM [31] was less than 10%, the inhibition of growth at 10 µM [32] was less than 10% and the inhibition of growth at 10 µM [33] was less than 10%. It also gave an inhibition of growth at 10 µM [34] of less than 10%, an inhibition of growth at 10 µM [35] of less than 10% and an inhibition of growth at 10 µM [36] of less than 10%. It also gave an inhibition of growth at 10 µM [37] of 36.3%, an inhibition of growth at 10 µM [38] of 10.3% and an inhibition of growth at 10 µM [39] of less than 10%. It also gave an inhibition of growth at 10 µM [40] of less than 10%, an inhibition of growth at 10 µM [41] of 37.2% and an inhibition of growth at 10 µM [42] of 21.2%. For the same compound, the inhibition of growth at 10 µM [43] was 23.1%, the inhibition of growth at 10 µM [44] was 23.2% and the inhibition of growth at 10 µM [45] was less than 10%. The inhibition of growth at 10 µM [46] was less than 10%, the inhibition of growth at 10 µM [47] was 78.1% and the inhibition of growth at 10 µM [48] was less than 10%.
